The text below walks through data of paper PMC10541198, “Specific quinone reductase 2 inhibitors reduce metabolic burden and reverse Alzheimer’s disease phenotype in mice” (The Journal of Clinical Investigation, 2023).

One series has as its target T1, QR1 (Homo sapiens, UniProt P15559).
T1 construct: purchased Sigma-Aldrich
Description: QR1 selectivity assay, fluorescence. As to conditions: Figure 2D; readout not stated. In kind it is biochemical. From the text:
A drug discovery campaign strategy was initiated to screen compounds for QR2-specific, cell-free inhibition and in vitro activity, followed by SAR optimization (Figure 2A) to achieve highly specific and potent QR2 inhibitor synthesis. In order to establish a varied and chemically amenable starting point, we developed a high-throughput QR2 assay (Supplemental Methods) that we screened against a library with approximately 200,000 compounds. […] Compounds that replicated the initial hit result were then assayed similarly against QR1 to evaluate compound specificity (Figure 2B). From the HTS, a chemically tractable and attractive series of compounds containing a sulfone flanked by an amine and a heterocycle were identified and selected for SAR development (Figure 2C, Supplemental Methods, Supplemental Table 1, and Supplemental Table 2). […]
menadione and 10 nM of QR2) were dispensed in 1536-well black Nunc plates (Thermo-Fisher) using aMultidrop™ Combi Reagent Dispenser (Thermo-Fisher) and pre-incubated with compounds for 10min. BNAH (200µM) was t hen added (3 µL) to the reaction using a BioNex Solutions BNX1536plate washer and the plates were incubated for another 10 min. Fluorescence intensity was followed in a PHERAstar FS multi-mode plate reader (BMG Labtech) us i ng an optic module with excitation at 360 nm and emission at 470 nm. The initial HTS includedapproximately 200,000 compounds at a single concentrationof 5 µM. The chemical libraries used were Selleck Chemicals Bioactives, the Drug-like set from Enamine, HitFinder collection from Maybridge, Spectrum Collection from Microsource, Lopa c from Sigma -Aldrich and the diversity set s from Chem Div and Che m Br idge .
Initial ‘‘hit’’ compounds were defined as causing >30% reduction of enzyme activity. Compounds suspected to be fluorescent were re -assayed in an absorbance assay at 350 nm using the same reaction but in a higher volume (100 µL), in a transparent plate (Greiner Bio- One). ‘‘Hit’’ compounds resulting from both the fluorescence and absorbance assay wer e t ested in a concentration- response, and IC50 values were de t er mi ne d. In parallel, the same

Series [1] is described as follows: Body weight during chronic ingestion. Format: in vivo, mouse. Conditions: for average weight: over 25 days of consumption; for Sup. Fig. 5-2A, body weight: in g (unit assumed). As for the experimental part: Supplementary Figure 6. Chronic Drinking of 50 mg/kg YB -537 for of 1 Month Causes no Changes
in General Mouse Physiology or Behavior but Improves Nesting Behavior Over Time. […]

The test system of another series is Amyloid β 42. Description: Amyloid β 42 ELISA, whole brain soluble and insoluble fractions. Further details: Sup. Fig. 6-6A, individual animal values / Sup. Fig. 6-6B, individual animal values / Sup. Fig. 6-6D, individual animal values / Sup. Fig. 6-6G, individual animal values / Sup. Fig. 6-6H, individual animal values: unit not given here. In kind it is in vivo, mouse. As to conditions: for Insoluble amyloid β 42 / Ratio of soluble- to insoluble amyloid β 42 / Soluble amyloid β 42: whole brain, 5xFAD 1 month. As for the experimental part:
Following completion of treatment with YB-537 or vehicle for 1 month in drinking water, mice were sacrificed, and brains were quickly removed and placed on ice. Brains were then bisected, and the cerebellum removed. Both hemispheres were then flash frozen in liquid nitrogen, with one hemisphere being used for Amyloid β 42 detection and the other used for WB. For Amyloid β 42 detection the hemisphere was first weighed, and then homogenised on ice using 1 mL of 0.1% Triton X-100 in TBS with complete protease inhibitor (Roche) and phosphatase inhibitor cocktail (Roche). Homogenates were then centrifuged at 100,000g for 1 h at 4° C, and supernatant containing t he soluble fraction of Amyloid β 42 was collected and stored at - 20° C overnight. The pellet, containing insoluble Amyloid β 42 was re - suspended in 1 mL of 5M guanidine HCl, placed on a rocker at RT f or 2h, and then stored overnight at 4° C, with later storage being done at -20° C. The insoluble fraction was then diluted 1:5 in TBS, and centrifuged for 30 min at 13,000g and 4° C. The resulting supernatant was then used to quantify the insoluble fraction. Protein determination was done on both soluble and insoluble fractions thus prepared, using a BCA kit (Thermo). Human Amyloid (aa1- 42) Quantikine ELISA Kit was then used as per the manufacturer’s instructions (R&D Systems, DAB142). Results obtained were then quantified as ng Amyloid β 42 / mL sample / brain hemisphere weight.
Experimental grouping was randomly allocated, in both rats and mice. The size for each group was based on previously published results by means of similar methods, with the use of an online power calculator (https://www.stat.ubc.ca/~rollin/stats/ssize/n2.html). Shapiro- Wilk normality tests were done for the collected data. Anal ysi s of normally distributed dat a was done using par am et ri c t ests (i .e. - unpaired students t-test, one-way ANOVA followed by Tukey’s or Sidak post hoc anal ys i s) and for data not normally

The structures appear in SMILES notation. Values joined by “and” are separate entries in the source; they are usually repeats but may differ in a detail not shown here. Equal entries are not always repeated. Some results are limits rather than exact numbers.

T1 sequence (P15559 whole entry): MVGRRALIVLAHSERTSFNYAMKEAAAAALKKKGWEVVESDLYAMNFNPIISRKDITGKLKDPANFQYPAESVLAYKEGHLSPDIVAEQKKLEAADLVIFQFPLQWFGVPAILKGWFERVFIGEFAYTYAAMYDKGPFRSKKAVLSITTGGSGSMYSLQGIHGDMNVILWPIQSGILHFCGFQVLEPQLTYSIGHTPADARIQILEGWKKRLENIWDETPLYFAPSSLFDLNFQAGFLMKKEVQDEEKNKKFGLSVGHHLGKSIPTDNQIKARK

On QR1, `Cc1ccc(-c2cn3cccc(C)c3n2)cc1S(=O)(=O)N1CCC(C)CC1` [YB-800] gave an IC50 of over 9.99 µM.
For the compound `Cc1ccc(-c2cn3cccc(C)c3n2)cc1S(=O)(=O)N1CCNCC1` [YB-537], the average weight worked out at 22.76 ± 0.192 g in series [1] (5xFAD females) and 32.56 ± 0.279 g in series [1] (5xFAD males). The “Sup. Fig. 5-2A, body weight” value was 23 and 22 and 24 and 25 and 21 and 20 in series [1] (Female, Day 1); 25 and 20 and 24 and 23 in series [1] (Female, Day 3); 25 and 21 and 27 and 24 and 20 in series [1] (Female, Day 5); 24 and 20 and 25 and 27 and 22 in series [1] (Female, Day 9); 23 and 21 and 25 and 26 and 22 in series [1] (Female, Day 11); 25 and 22 and 26 and 23 and 24 in series [1] (Female, Day 15). The “Sup. Fig. 5-2A, body weight” value in series [1] (Female, Day 16) was 23 and 20 and 24; in series [1] (Female, Day 18), 23 and 21 and 24 and 22 and 20; in series [1] (Female, Day 25), 25 and 22 and 23 and 21; in series [1] (Male, Day 1), 34 and 42 and 33 and 36 and 31 and 28; in series [1] (Male, Day 3) it was 33 and 41 and 32 and 35 and 30 and 26; in series [1] (Male, Day 5) it was 33 and 40 and 32 and 35 and 30 and 26 and 34 and 31. Besides, the “Sup. Fig. 5-2A, body weight” value was 31 and 39 and 32 and 33 and 30 and 27 and 35 in series [1] (Male, Day 9); 31 and 32 and 34 and 30 and 28 and 35 in series [1] (Male, Day 11); 32 and 39 and 34 and 31 and 28 and 36 in series [1] (Male, Day 15); 32 and 37 and 29 and 30 and 33 and 27 and 35 in series [1] (Male, Day 18); 32 and 39 and 31 and 34 and 27 in series [1] (Male, Day 25). The “Sup. Fig. 6-6A, individual animal values” in the series on Amyloid β 42 (5xFAD whole brain, all animals) was 0.36 and 0.35 and 1.82 and 1.07 and 0.33 and 5.68 and 2.65 and 2.02 and 0.56. Besides, in the series on Amyloid β 42 (5xFAD whole brain, all animals), the “Sup. Fig. 6-6B, individual animal values” is 31.16 and 54.15 and 11052.63 and 8070.79 and 40.92 and 4330.77 and 6642.89 and 15767.97 and 26.71. Further, the “Sup. Fig. 6-6C, individual animal values” in the series on Amyloid β 42 (5xFAD whole brain, all animals, ratio of 6-6A to 6-6B values) was 0.0114 and 0.0064 and 0.000165 and 0.000133 and 0.0080 and 0.0013 and 0.0004 and 0.000128 and 0.0210. Moreover, the “Sup. Fig. 6-6D, individual animal values” in the series with Amyloid β 42 (5xFAD whole brain, first subset of the 6-6A animals (sex not given)) was 1.07 and 0.33 and 5.68 and 2.65 and 0.56 and 0.35. Further, the “Sup. Fig. 6-6F, individual animal values” in the series with Amyloid β 42 (5xFAD whole brain, first subset of the 6-6C animals (sex not given), ratio) was 0.000133 and 0.0080 and 0.0013 and 0.0004 and 0.0210 and 0.0064. Also, the “Sup. Fig. 6-6G, individual animal values” in the series with Amyloid β 42 (5xFAD whole brain, second subset of the 6-6A animals (sex not given)) was 2.02 and 0.36 and 1.82. The “Sup. Fig. 6-6H, individual animal values” with Amyloid β 42 (5xFAD whole brain, second subset of the 6-6B animals (sex not given)) is 15767.97 and 31.16 and 11052.63. In the series on Amyloid β 42 (5xFAD whole brain, second subset of the 6-6C animals (sex not given), ratio), the “Sup. Fig. 6-6I, individual animal values” was 0.000128 and 0.0114 and 0.000165. Moreover, the “Insoluble amyloid β 42” value with Amyloid β 42 (both sexes), with Amyloid β 42 (female) and in the series with Amyloid β 42 (male) was “insignificantly reduced” in each case. For the same compound, the “Ratio of soluble- to insoluble amyloid β 42” value in the series with Amyloid β 42 (both sexes) and in the series with Amyloid β 42 (male) was “insignificantly increased” each time. In addition, the “Soluble amyloid β 42” value in the series with Amyloid β 42 (both sexes), in the series on Amyloid β 42 (female) and in the series on Amyloid β 42 (male) was “insignificantly reduced” each time. Also, on QR1, the IC50 is over 9.99 µM.
